Patent US12371428B2 (Exelixis, Inc., priority 2019, dated 2025)

Tests used:
[1] = molecular target: Met (phospho-Met, HGF-stimulated PC-3 prostate cancer cells) (Homo sapiens (Human), UniProt P08581); experiment: Met autophosphorylation ELISA in PC-3 cells (Example F); format: cell-based; settings: cellular activity; Met autophosphorylation ELISA in PC-3 cells; read-out: c-Met IC50
Summary of the method: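 Sandwich ELISA for phospho-Met (panTyr) in PC-3 lysates. Cells starved 3 h serum-free, compound 1 h (8-pt curve, 0.3% DMSO), HGF 100 ng/mL 10 min. 100% = HGF + DMSO; 0% = HGF + reference inhibitor. IC50 by 4-parameter fit.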

[2] = molecular target: Human KDR (residues 790-1356) (Homo sapiens (Human), UniProt P35968); experiment: Human KDR kinase assay, HTRF KinEase (Example B-2); format: biochemical; settings: protocol of Example B-2 (other compounds)
Chain of Human KDR (residues 790-1356) (P35968 790-1356): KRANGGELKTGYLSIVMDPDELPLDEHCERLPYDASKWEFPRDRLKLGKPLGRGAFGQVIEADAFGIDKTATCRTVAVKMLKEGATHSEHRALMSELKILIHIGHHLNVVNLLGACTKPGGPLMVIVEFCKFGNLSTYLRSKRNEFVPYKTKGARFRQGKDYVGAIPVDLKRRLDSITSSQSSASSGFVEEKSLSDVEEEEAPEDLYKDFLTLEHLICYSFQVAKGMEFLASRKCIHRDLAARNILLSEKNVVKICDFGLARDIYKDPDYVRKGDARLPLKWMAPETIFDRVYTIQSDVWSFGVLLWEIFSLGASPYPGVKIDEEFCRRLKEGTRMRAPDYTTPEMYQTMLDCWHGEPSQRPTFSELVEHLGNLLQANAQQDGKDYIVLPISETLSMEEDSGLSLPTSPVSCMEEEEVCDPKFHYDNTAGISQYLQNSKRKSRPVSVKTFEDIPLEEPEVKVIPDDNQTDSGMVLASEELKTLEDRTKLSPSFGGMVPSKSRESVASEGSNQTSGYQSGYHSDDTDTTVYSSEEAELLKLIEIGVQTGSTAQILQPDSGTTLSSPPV
Summary of the method: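 Human KDR residues 790-1356 (0.1 ng/well) in buffer with 5 mM MgCl2, 1 mM MnCl2, 1 mM DTT, biotinylated peptide substrate, ATP at Km (4.0 μM), 3% DMSO, 10 compound concentrations; 40 min, room temperature. EDTA stop, streptavidin-XL665/Eu-TK antibody HTRF read 665/620 nm; 4-parameter IC50.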

[3] = molecular target: KDR (phospho-KDR, VEGF165-stimulated HUVEC cells) (Homo sapiens (Human), UniProt P35968); experiment: KDR autophosphorylation ELISA in HUVEC cells (Example G); format: cell-based; settings: cellular activity; KDR autophosphorylation ELISA in HUVEC cells
Chain of KDR (phospho-KDR, VEGF165-stimulated HUVEC cells) (P35968 20-1356): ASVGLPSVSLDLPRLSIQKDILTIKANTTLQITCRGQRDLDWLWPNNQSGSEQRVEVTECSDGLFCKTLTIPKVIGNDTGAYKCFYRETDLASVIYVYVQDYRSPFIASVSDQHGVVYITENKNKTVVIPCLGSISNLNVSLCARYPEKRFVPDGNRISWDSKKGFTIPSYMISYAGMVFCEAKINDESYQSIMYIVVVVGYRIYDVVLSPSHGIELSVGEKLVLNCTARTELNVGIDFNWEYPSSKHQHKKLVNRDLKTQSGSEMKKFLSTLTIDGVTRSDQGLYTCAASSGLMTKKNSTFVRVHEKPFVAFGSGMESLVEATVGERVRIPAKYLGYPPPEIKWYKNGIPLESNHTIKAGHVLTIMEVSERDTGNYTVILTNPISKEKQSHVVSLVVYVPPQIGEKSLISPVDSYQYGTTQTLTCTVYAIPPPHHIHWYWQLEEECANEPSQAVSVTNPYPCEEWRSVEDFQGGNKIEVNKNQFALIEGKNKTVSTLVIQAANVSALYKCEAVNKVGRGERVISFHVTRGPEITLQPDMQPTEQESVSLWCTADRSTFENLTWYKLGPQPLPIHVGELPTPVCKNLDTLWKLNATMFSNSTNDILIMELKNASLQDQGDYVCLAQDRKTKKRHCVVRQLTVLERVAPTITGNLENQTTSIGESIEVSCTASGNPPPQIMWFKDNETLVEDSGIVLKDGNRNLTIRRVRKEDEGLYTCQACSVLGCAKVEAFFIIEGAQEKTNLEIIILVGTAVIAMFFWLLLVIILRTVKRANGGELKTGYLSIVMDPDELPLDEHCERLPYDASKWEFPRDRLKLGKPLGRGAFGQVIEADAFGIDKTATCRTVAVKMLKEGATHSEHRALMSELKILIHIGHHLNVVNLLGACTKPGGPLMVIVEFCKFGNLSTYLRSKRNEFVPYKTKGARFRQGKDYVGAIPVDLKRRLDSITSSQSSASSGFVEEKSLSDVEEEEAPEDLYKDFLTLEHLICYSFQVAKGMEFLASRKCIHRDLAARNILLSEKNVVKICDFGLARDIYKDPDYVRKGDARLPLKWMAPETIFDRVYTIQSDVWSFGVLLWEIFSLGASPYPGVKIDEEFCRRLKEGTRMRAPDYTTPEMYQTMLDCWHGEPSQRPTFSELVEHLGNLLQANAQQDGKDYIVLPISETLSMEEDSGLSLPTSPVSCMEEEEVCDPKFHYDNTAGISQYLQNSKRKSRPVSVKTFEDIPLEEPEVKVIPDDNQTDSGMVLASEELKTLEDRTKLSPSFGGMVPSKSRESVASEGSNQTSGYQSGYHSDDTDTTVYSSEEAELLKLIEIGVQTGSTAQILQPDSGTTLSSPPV
Summary of the method: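 HUVEC cells, serum-starved 24 h, were treated 1 h with an 8-point compound dilution (0.3% DMSO) and then stimulated with 100 ng/mL VEGF165 for 5 min. Phospho-KDR in lysates was quantified by sandwich ELISA against a phospho-KDR standard. IC50 from a 4-parameter logistic fit, normalised between stimulated DMSO and unstimulated controls.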

Chain of Met (phospho-Met, HGF-stimulated PC-3 prostate cancer cells) (P08581 25-1390): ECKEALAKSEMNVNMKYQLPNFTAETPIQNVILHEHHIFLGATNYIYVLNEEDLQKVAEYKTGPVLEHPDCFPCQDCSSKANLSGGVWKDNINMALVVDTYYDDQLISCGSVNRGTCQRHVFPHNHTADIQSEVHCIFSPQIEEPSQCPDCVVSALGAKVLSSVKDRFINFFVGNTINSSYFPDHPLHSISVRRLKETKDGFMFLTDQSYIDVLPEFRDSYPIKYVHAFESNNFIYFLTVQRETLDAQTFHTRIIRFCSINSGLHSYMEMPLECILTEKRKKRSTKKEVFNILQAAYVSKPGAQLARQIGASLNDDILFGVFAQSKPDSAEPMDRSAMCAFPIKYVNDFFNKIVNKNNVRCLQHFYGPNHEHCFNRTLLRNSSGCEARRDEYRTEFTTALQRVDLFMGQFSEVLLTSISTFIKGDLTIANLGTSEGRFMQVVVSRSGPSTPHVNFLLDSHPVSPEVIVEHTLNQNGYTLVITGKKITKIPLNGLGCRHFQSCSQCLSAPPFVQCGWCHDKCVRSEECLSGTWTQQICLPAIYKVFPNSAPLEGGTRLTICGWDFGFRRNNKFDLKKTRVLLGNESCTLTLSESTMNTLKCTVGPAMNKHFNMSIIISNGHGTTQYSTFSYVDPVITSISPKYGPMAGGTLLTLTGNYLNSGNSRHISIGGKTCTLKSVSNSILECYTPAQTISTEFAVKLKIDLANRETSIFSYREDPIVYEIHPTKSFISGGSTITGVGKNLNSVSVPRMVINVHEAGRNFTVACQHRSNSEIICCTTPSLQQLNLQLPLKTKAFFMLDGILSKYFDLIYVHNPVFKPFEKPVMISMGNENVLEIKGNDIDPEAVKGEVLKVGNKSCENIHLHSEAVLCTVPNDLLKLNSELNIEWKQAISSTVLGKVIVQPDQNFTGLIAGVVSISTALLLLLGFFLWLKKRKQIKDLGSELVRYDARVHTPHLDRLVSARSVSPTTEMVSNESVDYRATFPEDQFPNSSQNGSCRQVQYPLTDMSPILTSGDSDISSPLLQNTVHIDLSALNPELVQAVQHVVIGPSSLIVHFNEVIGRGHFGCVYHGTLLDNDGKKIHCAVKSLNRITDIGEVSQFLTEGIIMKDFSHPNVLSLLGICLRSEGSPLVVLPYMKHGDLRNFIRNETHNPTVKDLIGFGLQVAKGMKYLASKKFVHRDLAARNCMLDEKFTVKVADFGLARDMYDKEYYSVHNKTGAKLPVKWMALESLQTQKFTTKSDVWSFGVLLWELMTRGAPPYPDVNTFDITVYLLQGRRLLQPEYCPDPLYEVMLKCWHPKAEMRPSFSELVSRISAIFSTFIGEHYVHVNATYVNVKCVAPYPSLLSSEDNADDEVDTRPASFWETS

SMILES	IC50 [1] [µM]	IC50 [2] [µM]	IC50 [3] [µM]
CNC(=O)c1cc2c(Oc3ccc(NC(=O)c4c5n(cc(-c6ccc(F)cc6)c4=O)CCC5)cc3F)ccnc2cc1OC [Compound 408, 4-[2-fluoro-4-[[6-(4-fluorophenyl)-7-oxo-2,3-dihydro-1H-indolizine-8-carbonyl]amino]phenoxy]-7-methoxy-N-methylquinoline-6-carboxamide]	< 0.1	< 0.1	< 0.1
COc1ccc2nccc(Oc3ccc(NC(=O)c4ccc(C)n(-c5ccc(F)cc5C)c4=O)cc3F)c2n1 [Compound 85, N-[3-Fluoro-4-[(6-methoxy-1,5-naphthyridin-4-yl)oxy]phenyl]-1-(4-fluoro-2-methylphenyl)-6-methyl-2-oxopyridine-3-carboxamide]	< 0.1	> 0.3	< 0.1
Cc1cc(F)ccc1-c1c(C)nc(C)c(C(=O)Nc2ccc(Oc3ccnc4cc(C)c(F)nc34)c(F)c2)c1O [Compound 428, N-[3-fluoro-4-[(6-fluoro-7-methyl-1,5-naphthyridin-4-yl)oxy]phenyl]-5-(4-fluoro-2-methylphenyl)-4-hydroxy-2,6-dimethylpyridine-3-carboxamide]	< 0.1	0.1 to 0.3	< 0.1
COc1cc2nccc(Oc3ccc(NC(=O)c4cnc(C)c(-c5ccc(F)cc5C)c4O)cc3F)c2nc1OC [Compound 69, N-[4-[(6,7-Dimethoxy-1,5-naphthyridin-4-yl)oxy]-3-fluorophenyl]-5-(4-fluoro-2-methylphenyl)-4-hydroxy-6-methylpyridine-3-carboxamide]	< 0.1	< 0.1	< 0.1
COCCOc1cc2nccc(Oc3ccc(NC(=O)c4c(C)nc(C)c(-c5ccc(F)cc5)c4O)cc3F)c2nc1OC [Compound 432, N-[3-fluoro-4-[[6-methoxy-7-(2-methoxyethoxy)-1,5-naphthyridin-4-yl]oxy]phenyl]-5-(4-fluorophenyl)-4-hydroxy-2,6-dimethylpyridine-3-carboxamide]	< 0.1	< 0.1	< 0.1
COc1cc2nccc(Oc3ccc(NC(=O)c4cn(C)c(CO)c(-c5ccc(F)cc5)c4=O)cc3F)c2nc1OC [Compound 72, N-[4-[(6,7-Dimethoxy-1,5-naphthyridin-4-yl)oxy]-3-fluorophenyl]-5-(4-fluorophenyl)-6-(hydroxymethyl)-1-methyl-4-oxopyridine-3-carboxamide]	< 0.1	0.1 to 0.3	0.1 to 0.3
CCn1cc(C(=O)Nc2ccc(Oc3ccnc4cc(O)cnc34)c(F)c2)c(=O)c(-c2ccc(F)cc2)c1C [Compound 410, 1-ethyl-N-[3-fluoro-4-[(7-hydroxy-1,5-naphthyridin-4-yl)oxy]phenyl]-5-(4-fluorophenyl)-6-methyl-4-oxopyridine-3-carboxamide]	0.1 to 0.3	> 0.3	> 0.3
COc1cc2nccc(Oc3ccc(NC(=O)c4cnc(C)c(-c5ccc(F)cc5C)c4O)cc3)c2nc1OC(C)C [Compound 414, 5-(4-fluoro-2-methylphenyl)-4-hydroxy-N-[4-[(7-methoxy-6-propan-2-yloxy-1,5-naphthyridin-4-yl)oxy]phenyl]-6-methylpyridine-3-carboxamide]	< 0.1	> 0.3	< 0.1
COc1cc2nccc(Oc3ccc(NC(=O)c4cnc(C)c(-c5ccc(F)cc5C)c4O)cc3F)c2nc1OC(C)C [Compound 416, N-[3-fluoro-4-[(7-methoxy-6-propan-2-yloxy-1,5-naphthyridin-4-yl)oxy]phenyl]-5-(4-fluoro-2-methylphenyl)-4-hydroxy-6-methylpyridine-3-carboxamide]	< 0.1	> 0.3	< 0.1
COc1cc2nccc(Oc3ccc(NC(=O)c4cn(C5(C(F)(F)F)CC5)cc(-c5ccc(F)cc5)c4=O)cc3F)c2nc1OC [Compound 59, N-[4-[(6,7-Dimethoxy-1,5-naphthyridin-4-yl)oxy]-3-fluorophenyl]-5-(4-fluorophenyl)-4-oxo-1-[1-(trifluoromethyl)cyclopropyl]pyridine-3-carboxamide]	< 0.1	0.1 to 0.3	> 0.3
